Test results as given in US4778802A, “Heterocyclic compounds” (John Wyeth & Brother, Ltd., priority 1985, dated 1988).
pIC50: −log10 of the molar value. Read-outs that look alike come from different tables or passages of the source.

How the values were obtained:
[1] = system: 3H noradrenaline (NA) uptake into rat brain synaptosomes; experiment: Inhibition of 3H noradrenaline (NA) uptake into rat brain synaptosomes; format: biochemical, male Sprague Dawley rats; settings: 37°, 4 minutes
Description: (§1) In vitro tests have shown that compounds of formula I also have a marked degree of selectivity in inhibiting uptake of 5-HT into rat brain synaptosomes relative to uptake of ^3 H noradrenaline. The test procedure involved obtaining synaptosomal preparations from male Sprague Dawley rats according to the method of Grey and Whittaker* as modified by Wood & Wyllie.** Aliquots of the synaptosomal preparation were then incubated with tritrated noradrenaline (NA) or 5-HT at a temperature of 37° for 4 minutes. The active synaptosomal accumulation of labelled substrate was measured by filtration and scintillation counting. The effect at a range of concentrations of test compound enabled IC50 values and selectivity ratios to be calculated.

[2] = system: 5-HT uptake into rat brain synaptosomes; experiment: Inhibition of 5-HT uptake into rat brain synaptosomes; format: biochemical, male Sprague Dawley rats; settings: for pIC50: 37°, 4 minutes; for Selectivity Ratio (5-HT uptake relative to NA uptake): from IC50 NA and IC50 5-HT
Description: as §1

[3] = system: pCA-induced 5-HT syndrome; experiment: Inhibition of p-chloroamphetamine (pCA)-induced stereotypy in rats, p.o.; format: in vivo, male Sprague-Dawley rats; settings: for inhibition of syndrome at 50 mg/kg: 50 mg/kg p.o.; for ED50: Rattus norvegicus, po; for antagonism of pCA-induced stereotypy (in words): 5 dose levels
Description: Representative compounds of this invention were tested for their ability to inhibit pCA induced syndrome in rats by the standard procedure described below:
(§2) Inhibition of p-chloroamphetamine (pCA)-induced stereotypy
Vehicle or drug (5 dose levels) were administered p.o. to six groups of 6-8 male Sprague-Dawley rats (300-400 g) followed, 90 minutes later, by pCA (10 mg/kg i.p.). The animals were then placed in individual observation chambers and, 30 minutes after pCA administration, the intensity of the pCA-induced 5-HT syndrome was assessed according to the following scoring system:
head-weaving 0, 1, 2 or 3 according to
fore-paw treading severity
(§3) tremor 0 (absent) or 1 (present)
Therefore, the maximum score for each animal was 10.
(§4) The inhibition of pCA induced stereotypy is calculated for each dose level as follows: [formula] where
C=control group total score at 30 minutes post pCA.
T=group total score of treated group at 30 minutes post pCA.
For each dose a % effect is calculated.
The results obtained from the tests using 5 different dose levels of the drug allow the ED50 value (i.e. the dose required to produce 50% inhibition of pCA induced stereotypy) to be calculated.
The test was carried out using the free bases except for compound C which was tested in the form if its maleate salt and the result corrected for amount of active material.

[4] = system: 5-hydroxy-L-tryptophan induced behavioural syndrome; experiment: Potentiation of 5-hydroxytryptophan (5-HTP)-induced behaviour in rats; format: in vivo, male Sprague-Dawley rats; settings: Rattus norvegicus, po
Description: The compounds B and C were also tested for their ability to potentiate 5-hydroxy-L-tryptophan induced behavioural syndrome in rats. The test procedure is described below (updated from that described in UK No. 2073179B).
Potentiation of 5-hydroxytryptophan (5-HTP)-induced behaviour
Groups of 10 male Sprague-Dawley rats (310-360 g) were dosed p.o. with vehicle or drugs. Ninety minutes later 5-HTP (50 mg/kg s.c.) was administered and the animals placed in individual observation chambers (peripheral decarboxylation was prevented by 25 mg/kg i.p. carbidopa administered 60 minutes before 5-HTP). Head shakes were counted over the period 30-45 minutes after 5-HTP and the intensity of the 5-HT syndrome was scored immediately afterwards using the system described for the pCA procedure above. Percentage potentiation of syndrome was calculated as follows: […]
0, 1, 2 or 3 according to severity
as §3
Percentage potentiation was calculated from the following: [formula]

[5] = system: pCA-induced stereotypy; experiment: Duration of action: inhibition of pCA-induced stereotypy at various times after dosing; format: in vivo, male Sprague-Dawley rats; settings: 6 mg/kg p.o.
Description: as §2
The animals were then placed in individual observation chambers and, 30 minutes after pCA administration, the intensity of the pCA-induced 5-HT syndrome was assessed according to the following scoring system:
as §4

[6] = system: pCA syndrome; experiment: Related duration test on pCA syndrome (with modified scoring); format: in vivo; settings: 15 mg/kg
[7] = rats, p.o., 90 min before pCA 10 mg/kg i.p., scored 30 min after pCA, free bases except C (maleate, corrected for active material), read-out: ED50 (dose required to produce 50% inhibition of pCA induced stereotypy)
[8] = rats, p.o., 90 min before 5-HTP 50 mg/kg s.c., carbidopa 25 mg/kg i.p., value of C corrected for amount of active ingredient, read-out: ED50 (potentiation of 5-HTP-induced behavioural syndrome)

Compound | pIC50 [1] | pIC50 [2] | Selectivity Ratio (5-HT uptake relative to NA uptake) [2] | inhibition of syndrome at 50 mg/kg ([3]; rats) | ED50 [3, 7] [mg/kg] | antagonism of pCA-induced stereotypy (in words) ([3]; rats, p.o.) | ED50 [4, 8] [mg/kg] | % Inhibition of pCA induced stereotypy, time 2 ([5]; time 2 after administration of 5-HT inhibitor (time unit not given)) | % Inhibition of pCA induced stereotypy, time 6 ([5]; time 6 after administration of 5-HT inhibitor (time unit not given)) [%] | % Inhibition of pCA induced stereotypy, time 12 ([5]; time 12 after administration of 5-HT inhibitor (time unit not given)) [%] | % Inhibition of pCA induced stereotypy, time 16 ([5]; time 16 after administration of 5-HT inhibitor (time unit not given)) [%] | ED50 ([3]; same test, monohydrochloride corrected for amount of active ingredient, read-out: ED50 (inhibition of pCA induced stereotypy), panuramine) [mg/kg] | duration of action (in words) [6] | inhibition after 16 hours ([6]; 16 hours) [%] | inhibition after two hours ([6]; two hours) [%] | ED50 ([4]; same test, corrected for amount of base, read-out: ED50 (potentiation of 5-HTP-induced behavioural syndrome), panuramine HCl salt) [mg/kg]
O=C(NC(=O)c1ccc2ncccc2c1)NC1CCN(Cc2ccc3ncccc3c2)CC1 [B, N-[[[1-(quinol-6-ylmethyl)-4-piperidinyl]amino]-carbonyl]-6-quinolinecarboxamide] | 5.05 | 7.37 | 207 | 99% | 6.5 | antagonised pCA-induced stereotypy in a dose-dependent manner | 7.3 |  |  |  |  |  |  |  |  | 
O=C(NC(=O)c1ccc2ncccc2c1)NC1CCN(Cc2ccc3cc(F)ccc3c2)CC1 [C, N-[[[1-(6-fluoro-2-naphthalenylmethyl)-4-piperidinyl]-amino]-carbonyl]-6-quinolinecarboxamide] | 4.43 | 7.09 | 450 | 99% | 2.1 | antagonised pCA-induced stereotypy in a dose-dependent manner | 2.4 | ca. 79% | 82.8 | 56.9 | 57.6 |  |  |  |  | 
O=C(NC(=O)c1ccccc1)NC1CCN(Cc2ccc3ccccc3c2)CC1 [panuramine, 1-benzoyl-3-[1-(naphth-2-ylmethyl)piperid-4-yl]urea, reference compound] | 5.07 | 7.20 | 135 | ca. 78% |  |  |  |  |  |  |  | 16.2 | much shorter duration of action | 12.2 | 65.1 | 27.4
O=C(NC(=O)c1ccc2ncccc2c1)NC1CCN(Cc2ccc3ccccc3c2)CC1 [A, N-[[[1-(2-naphthalenylmethyl)-4-piperidinyl]amino]-carbonyl]-6-quinolinecarboxamide] |  |  |  | 99% | 2.7 | antagonised pCA-induced stereotypy in a dose-dependent manner |  |  |  |  |  |  |  |  |  | 
